Laboratory results from ChEMBL document CHEMBL1156052, “Discovery of 1-[4-(3-chlorophenylamino)-1-methyl-1H-pyrrolo[3,2-c]pyridin-7-yl]-1-morpholin-4-ylmethanone (GSK554418A), a brain penetrant 5-azaindole CB2 agonist for the treatment of chronic pain” (J Med Chem, 2009).
The source made the active and inactive calls. The rule behind the calls is not given here.

How the values were obtained:
[1] = molecular target: Muscarinic acetylcholine receptor M1 (Homo sapiens) (UniProt P11229); assay: Binding affinity to human muscarinic M1 receptor at 1 uM
[2] = Binding affinity to GABA receptor at 1 uM
[3] = Intrinsic clearance in rat liver microsomes; type: ADME, Microsome
[4] = molecular target: Cytochrome P450 2C9 (Homo sapiens, UniProt P11712); assay: Inhibition of CYP2C9; type: ADME
[5] = system: Rattus norvegicus; assay: Analgesic activity in rat joint model of chronic pain assessed as reversal of hypersensitivity at 10 mg/kg, po BID for 5 days; type: functional, organism-based; set-up: dose 10 mg/kg
[6] = species on record: Homo sapiens; assay: Selectivity ratio of EC50 for human recombinant cannabinoid CB1 receptor to EC50 for human recombinant cannabinoid CB2 receptor
[7] = molecular target: Type-1 angiotensin II receptor (Homo sapiens) (UniProt P30556); assay: Binding affinity to human AT1 receptor at 1 uM
[8] = Binding affinity to adrenergic alpha1 receptor at 1 uM
[9] = molecular target: 5-hydroxytryptamine receptor 5A (Homo sapiens) (UniProt P47898); assay: Binding affinity to 5HT5A receptor at 1 uM
[10] = molecular target: T1, Cannabinoid receptor 2 (Homo sapiens, UniProt P34972); assay: Agonist activity at human recombinant cannabinoid CB2 receptor expressed in CHOK1 cells assessed as forskolin-induced cAMP production by luciferase assay; type: functional, cell-based, CHO-K1
[11] = Ratio of drug level in brain to blood in rat 130 mg/kg, po after 5 hrs; type: ADME, organism-based; set-up: dose 130 mg/kg, route oral
[12] = Drug level in rat blood at 130 mg/kg, po after 3 hrs; type: ADME, organism-based; set-up: dose 130 mg/kg, route oral; conditions: read-out: Drug uptake
[13] = system: Rattus norvegicus; assay: Antihyperalgesic activity in complete Freund's adjuvant rat model of inflammatory pain assessed as reversal of hyperalgesia at 1 mg/kg, po administered as single dose; type: functional, organism-based; set-up: dose 1 mg/kg
[14] = molecular target: Adenosine receptor A2a (Homo sapiens) (UniProt P29274); assay: Binding affinity to human adenosine A2A receptor at 1 uM
[15] = molecular target: T1, Cannabinoid receptor 2; assay: Agonist activity at human recombinant cannabinoid CB2 receptor expressed in MMY23 Saccharomyces cerevisiae assessed as degradation of FDGlu to fluorescein after 24 hrs by spectrofluorimetry relative to HU210; type: functional
[16] = molecular target: Cytochrome P450 1A2 (Homo sapiens, UniProt P05177); assay: Inhibition of CYP1A2; type: ADME
[17] = molecular target: Cytochrome P450 2C19 (Homo sapiens, UniProt P33261); assay: Inhibition of CYP2C19; type: ADME
[18] = molecular target: Melatonin receptor type 1A (Homo sapiens) (UniProt P48039); assay: Binding affinity to human ML1 receptor at 1 uM
Melatonin receptor type 1A (Homo sapiens), sequence (P48039 whole entry): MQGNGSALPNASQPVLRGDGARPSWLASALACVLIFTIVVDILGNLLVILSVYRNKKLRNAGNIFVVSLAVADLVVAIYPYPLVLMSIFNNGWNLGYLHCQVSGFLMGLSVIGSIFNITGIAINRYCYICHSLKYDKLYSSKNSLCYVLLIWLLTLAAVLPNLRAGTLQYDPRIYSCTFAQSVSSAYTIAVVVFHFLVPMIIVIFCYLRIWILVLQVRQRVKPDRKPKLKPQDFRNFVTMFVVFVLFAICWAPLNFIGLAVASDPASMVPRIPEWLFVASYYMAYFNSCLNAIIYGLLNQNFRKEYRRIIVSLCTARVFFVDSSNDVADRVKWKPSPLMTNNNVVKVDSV

T1 sequence (P34972 whole entry): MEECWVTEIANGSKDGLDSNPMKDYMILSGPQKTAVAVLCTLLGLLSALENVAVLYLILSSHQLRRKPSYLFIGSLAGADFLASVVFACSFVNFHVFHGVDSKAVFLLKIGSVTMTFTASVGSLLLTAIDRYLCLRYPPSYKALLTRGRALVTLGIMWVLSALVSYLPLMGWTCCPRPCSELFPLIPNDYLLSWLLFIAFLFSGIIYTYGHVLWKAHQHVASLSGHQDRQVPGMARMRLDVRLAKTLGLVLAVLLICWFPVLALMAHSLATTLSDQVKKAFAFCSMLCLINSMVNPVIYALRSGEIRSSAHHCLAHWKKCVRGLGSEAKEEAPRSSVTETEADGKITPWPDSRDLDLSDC
Cytochrome P450 1A2, sequence (P05177 whole entry): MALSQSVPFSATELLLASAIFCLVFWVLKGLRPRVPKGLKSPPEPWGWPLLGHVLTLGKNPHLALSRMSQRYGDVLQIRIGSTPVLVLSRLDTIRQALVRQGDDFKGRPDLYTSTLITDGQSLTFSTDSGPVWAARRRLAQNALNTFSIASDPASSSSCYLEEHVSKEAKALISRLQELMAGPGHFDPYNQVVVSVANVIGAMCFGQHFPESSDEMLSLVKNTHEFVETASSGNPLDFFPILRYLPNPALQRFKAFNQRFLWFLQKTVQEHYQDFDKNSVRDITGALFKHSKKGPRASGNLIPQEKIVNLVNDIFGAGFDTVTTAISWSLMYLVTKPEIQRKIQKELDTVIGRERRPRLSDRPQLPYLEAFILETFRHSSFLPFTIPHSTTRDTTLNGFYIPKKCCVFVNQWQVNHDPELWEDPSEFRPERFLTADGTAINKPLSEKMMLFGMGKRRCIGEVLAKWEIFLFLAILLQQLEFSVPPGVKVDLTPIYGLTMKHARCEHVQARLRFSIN
Cytochrome P450 2C19, sequence (P33261 whole entry): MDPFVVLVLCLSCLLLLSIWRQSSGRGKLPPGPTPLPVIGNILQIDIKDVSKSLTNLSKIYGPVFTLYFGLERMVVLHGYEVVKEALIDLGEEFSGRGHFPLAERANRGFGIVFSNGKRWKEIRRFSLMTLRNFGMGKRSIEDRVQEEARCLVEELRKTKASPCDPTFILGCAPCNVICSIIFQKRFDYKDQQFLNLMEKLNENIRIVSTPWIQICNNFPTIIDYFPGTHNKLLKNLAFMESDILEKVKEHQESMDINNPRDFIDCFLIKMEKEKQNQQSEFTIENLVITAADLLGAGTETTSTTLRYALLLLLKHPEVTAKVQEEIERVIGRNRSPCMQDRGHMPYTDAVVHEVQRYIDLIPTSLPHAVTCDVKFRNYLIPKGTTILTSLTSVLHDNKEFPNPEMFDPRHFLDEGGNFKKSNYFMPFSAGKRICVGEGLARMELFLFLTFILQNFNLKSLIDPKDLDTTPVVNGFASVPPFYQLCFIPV
Adenosine receptor A2a (Homo sapiens), sequence (P29274 whole entry): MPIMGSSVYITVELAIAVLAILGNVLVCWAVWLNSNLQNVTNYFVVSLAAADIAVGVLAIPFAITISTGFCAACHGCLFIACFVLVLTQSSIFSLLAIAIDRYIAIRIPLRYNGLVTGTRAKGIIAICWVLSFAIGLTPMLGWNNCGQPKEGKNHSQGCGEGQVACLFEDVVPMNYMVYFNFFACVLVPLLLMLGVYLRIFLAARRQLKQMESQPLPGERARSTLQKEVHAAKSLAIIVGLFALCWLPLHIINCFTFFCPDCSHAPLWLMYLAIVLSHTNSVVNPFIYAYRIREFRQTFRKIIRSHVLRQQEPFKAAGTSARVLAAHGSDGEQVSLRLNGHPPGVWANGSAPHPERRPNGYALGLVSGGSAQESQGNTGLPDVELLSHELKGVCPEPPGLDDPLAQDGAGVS
Muscarinic acetylcholine receptor M1 (Homo sapiens), sequence (P11229 whole entry): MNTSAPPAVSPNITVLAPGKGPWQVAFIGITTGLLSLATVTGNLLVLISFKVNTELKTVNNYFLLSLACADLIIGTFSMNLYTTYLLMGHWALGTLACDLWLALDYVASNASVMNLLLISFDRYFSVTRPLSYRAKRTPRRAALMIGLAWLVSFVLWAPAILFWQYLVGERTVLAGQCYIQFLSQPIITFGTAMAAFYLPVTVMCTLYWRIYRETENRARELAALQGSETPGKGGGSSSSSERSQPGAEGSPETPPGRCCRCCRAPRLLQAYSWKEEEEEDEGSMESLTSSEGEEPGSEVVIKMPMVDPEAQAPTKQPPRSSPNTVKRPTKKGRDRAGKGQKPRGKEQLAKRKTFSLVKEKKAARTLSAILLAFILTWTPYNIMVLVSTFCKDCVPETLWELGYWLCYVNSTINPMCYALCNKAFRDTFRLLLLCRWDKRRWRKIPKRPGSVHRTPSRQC
Type-1 angiotensin II receptor (Homo sapiens), sequence (P30556 whole entry): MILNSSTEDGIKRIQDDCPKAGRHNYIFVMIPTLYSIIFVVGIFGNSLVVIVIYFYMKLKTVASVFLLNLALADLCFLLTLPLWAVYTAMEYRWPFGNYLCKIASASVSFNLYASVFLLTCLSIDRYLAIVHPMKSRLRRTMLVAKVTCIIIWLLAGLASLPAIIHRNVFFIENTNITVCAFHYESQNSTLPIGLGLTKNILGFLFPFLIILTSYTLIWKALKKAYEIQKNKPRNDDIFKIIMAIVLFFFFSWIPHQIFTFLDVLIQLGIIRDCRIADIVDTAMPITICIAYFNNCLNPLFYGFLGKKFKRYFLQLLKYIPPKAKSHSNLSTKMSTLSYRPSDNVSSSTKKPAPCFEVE
5-hydroxytryptamine receptor 5A (Homo sapiens), sequence (P47898 whole entry): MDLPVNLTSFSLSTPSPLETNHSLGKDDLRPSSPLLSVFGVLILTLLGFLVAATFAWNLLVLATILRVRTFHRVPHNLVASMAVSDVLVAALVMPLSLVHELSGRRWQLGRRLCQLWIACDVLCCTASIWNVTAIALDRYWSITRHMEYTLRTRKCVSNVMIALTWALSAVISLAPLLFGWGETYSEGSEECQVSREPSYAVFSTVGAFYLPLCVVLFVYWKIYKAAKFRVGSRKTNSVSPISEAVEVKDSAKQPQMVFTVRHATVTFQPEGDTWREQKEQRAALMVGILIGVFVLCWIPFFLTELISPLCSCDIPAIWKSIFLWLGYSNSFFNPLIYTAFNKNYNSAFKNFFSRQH
Cytochrome P450 2C9, sequence (P11712 whole entry): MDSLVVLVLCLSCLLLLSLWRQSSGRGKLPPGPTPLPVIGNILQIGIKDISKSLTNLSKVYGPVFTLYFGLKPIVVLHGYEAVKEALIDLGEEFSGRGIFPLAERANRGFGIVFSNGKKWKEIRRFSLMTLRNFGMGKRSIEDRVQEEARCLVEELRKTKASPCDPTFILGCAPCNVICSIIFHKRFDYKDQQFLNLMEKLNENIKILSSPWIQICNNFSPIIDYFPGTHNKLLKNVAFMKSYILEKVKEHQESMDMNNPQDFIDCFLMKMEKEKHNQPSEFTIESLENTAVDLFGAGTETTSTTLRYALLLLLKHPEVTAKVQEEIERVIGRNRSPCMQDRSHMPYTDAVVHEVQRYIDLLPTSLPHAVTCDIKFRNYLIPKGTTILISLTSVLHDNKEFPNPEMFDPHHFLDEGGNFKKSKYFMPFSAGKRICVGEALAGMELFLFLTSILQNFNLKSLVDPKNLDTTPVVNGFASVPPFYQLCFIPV

Cn1ccc2c(Nc3cccc(Cl)c3)ncc(C(=O)N3CCOCC3)c21
Activity [1]: < 10% | Activity [2]: < 10% | CLint scaled [3]: < 0.8 mL/min/kg | IC50 [4]: 42 µM | Activity [5]: Active | Ratio EC50 [6]: 1200 | Activity [7]: < 10% | Activity [8]: < 10% | Activity [9]: 15% | EC50 [10]: 0.008 µM | Kp at 5 h [11]: 1 | concentration at 3 h [12]: 10 µM | Activity [13]: Active | Activity [14]: < 10% | Efficacy [15]: 91% | IC50 [16]: > 100 µM | IC50 [17]: 41 µM | Activity [18]: < 10%
